From PubChem BioAssay (NCI)
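Here, GI50 denotes the concentration required for 50% inhibition of growth. The concentration for full growth arrest is given as TGI.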

Legend:
Assay in all cases: NCI tumour cell line growth inhibition, 384-well format
MDA-MB-468 breast = test system: MDA-MB-468 breast
LOX IMVI melanoma = test system: LOX IMVI melanoma
NCI-H460 NSCLC = test system: NCI-H460 NSCLC
HS 578T breast = test system: HS 578T breast
OVCAR-5 ovarian = test system: OVCAR-5 ovarian
NCI-H322M lung = test system: NCI-H322M lung
RXF 393 renal = test system: RXF 393 renal
NCI-H226 lung = test system: NCI-H226 lung
IGROV1 ovarian = test system: IGROV1 ovarian
MDA-MB-231 breast = test system: MDA-MB-231 breast
SF-268 CNS = test system: SF-268 CNS
RPMI-8226 leukemia = test system: RPMI-8226 leukemia
HT29 colon = test system: HT29 colon
SK-OV-3 ovarian = test system: SK-OV-3 ovarian
NCI-H522 lung = test system: NCI-H522 lung
SNB-19 CNS = test system: SNB-19 CNS
OVCAR-4 ovarian = test system: OVCAR-4 ovarian
PC-3 prostate = test system: PC-3 prostate
HL-60(TB) leukemia = test system: HL-60(TB) leukemia
CAKI-1 renal = test system: CAKI-1 renal
A549 NSCLC = test system: A549 NSCLC
EKVX NSCLC = test system: EKVX NSCLC
SNB-75 CNS = test system: SNB-75 CNS
UACC-62 melanoma = test system: UACC-62 melanoma
SK-MEL-5 melanoma = test system: SK-MEL-5 melanoma
DU-145 prostate = test system: DU-145 prostate
OVCAR-3 ovarian = test system: OVCAR-3 ovarian
MOLT-4 leukemia = test system: MOLT-4 leukemia
T-47D breast = test system: T-47D breast
A498 renal = test system: A498 renal
KM12 colon = test system: KM12 colon
NCI/ADR-RES ovarian = test system: NCI/ADR-RES ovarian
BT-549 breast = test system: BT-549 breast
MDA-MB-435 melanoma = test system: MDA-MB-435 melanoma
MCF7 breast = test system: MCF7 breast
HCC-2998 colon = test system: HCC-2998 colon
SF-539 CNS = test system: SF-539 CNS
HOP-62 NSCLC = test system: HOP-62 NSCLC
M14 melanoma = test system: M14 melanoma
UACC-257 melanoma = test system: UACC-257 melanoma
U251 glioblastoma = test system: U251 glioblastoma
NCI-H23 lung = test system: NCI-H23 lung
HCT-116 colon = test system: HCT-116 colon
HCT-15 colon = test system: HCT-15 colon
HOP-92 NSCLC = test system: HOP-92 NSCLC
SF-295 CNS = test system: SF-295 CNS
ACHN renal = test system: ACHN renal
OVCAR-8 ovarian = test system: OVCAR-8 ovarian
SK-MEL-28 melanoma = test system: SK-MEL-28 melanoma
COLO 205 colon = test system: COLO 205 colon
SR leukemia = test system: SR leukemia
MALME-3M melanoma = test system: MALME-3M melanoma
TK-10 renal = test system: TK-10 renal
SN12C renal = test system: SN12C renal
786-0 renal = test system: 786-0 renal
K-562 leukemia = test system: K-562 leukemia
CCRF-CEM leukemia = test system: CCRF-CEM leukemia
SW-620 colon = test system: SW-620 colon
UO-31 renal = test system: UO-31 renal

## Cc1c(Cn2c(C)nc3c(C(=O)O)cc(N4CCOCC4)cc32)cccc1C(F)(F)F
MDA-MB-468 breast
  GI50: 49.2 µM
  TGI: > 100 µM
LOX IMVI melanoma
  GI50: 33.1 µM
  TGI: > 100 µM
NCI-H460 NSCLC
  GI50: 33.9 µM
  TGI: > 100 µM
HS 578T breast
  GI50: 82.8 µM
  TGI: > 100 µM
OVCAR-5 ovarian
  GI50: 52.4 µM
  TGI: > 100 µM
NCI-H322M lung
  GI50: 60.9 µM
  TGI: > 100 µM
RXF 393 renal
  GI50: 14.6 µM
  TGI: > 100 µM
NCI-H226 lung
  GI50: 64.9 µM
  TGI: > 100 µM
IGROV1 ovarian
  GI50: 64.4 µM
  TGI: > 100 µM
MDA-MB-231 breast
  GI50: 97.2 µM
  TGI: > 100 µM
SF-268 CNS
  GI50: 70.6 µM
  TGI: > 100 µM
RPMI-8226 leukemia
  GI50: 46.7 µM
  TGI: > 100 µM
HT29 colon
  GI50: 54.7 µM
  TGI: > 100 µM
SK-OV-3 ovarian
  GI50: 61.8 µM
  TGI: > 100 µM
NCI-H522 lung
  GI50: 75.6 µM
  TGI: > 100 µM
SNB-19 CNS
  GI50: 89.1 µM
  TGI: > 100 µM
OVCAR-4 ovarian
  GI50: 31.8 µM
  TGI: > 100 µM
PC-3 prostate
  GI50: 26.9 µM
  TGI: > 100 µM
HL-60(TB) leukemia
  GI50: 18.3 µM
  TGI: > 100 µM
CAKI-1 renal
  GI50: 57.7 µM
  TGI: > 100 µM
A549 NSCLC
  GI50: 62.1 µM
  TGI: > 100 µM
EKVX NSCLC
  GI50: 58.1 µM
  TGI: > 100 µM
SNB-75 CNS
  GI50: 63.4 µM
  TGI: > 100 µM
UACC-62 melanoma
  GI50: 75.8 µM
  TGI: > 100 µM
SK-MEL-5 melanoma
  GI50: 18 µM
  TGI: 57.8 µM
DU-145 prostate
  GI50: 52.1 µM
  TGI: > 100 µM
OVCAR-3 ovarian
  GI50: 39.3 µM
  TGI: > 100 µM
MOLT-4 leukemia
  GI50: 19.6 µM
  TGI: 41.4 µM
T-47D breast
  GI50: > 100 µM
  TGI: > 100 µM
A498 renal
  GI50: 0.462 µM
  TGI: 8.29 µM
KM12 colon
  GI50: 73 µM
  TGI: > 100 µM
NCI/ADR-RES ovarian
  GI50: 3.1 µM
  TGI: 11.1 µM
BT-549 breast
  GI50: 67.4 µM
  TGI: > 100 µM
MDA-MB-435 melanoma
  GI50: 75 µM
  TGI: > 100 µM
MCF7 breast
  GI50: 59.9 µM
  TGI: > 100 µM
HCC-2998 colon
  GI50: 45.2 µM
  TGI: > 100 µM
SF-539 CNS
  GI50: 54 µM
  TGI: > 100 µM
HOP-62 NSCLC
  GI50: 24.5 µM
  TGI: > 100 µM
M14 melanoma
  GI50: 30.1 µM
  TGI: > 100 µM
UACC-257 melanoma
  GI50: 56.3 µM
  TGI: > 100 µM
U251 glioblastoma
  GI50: 48.8 µM
  TGI: > 100 µM
NCI-H23 lung
  GI50: 85.8 µM
  TGI: > 100 µM
HCT-116 colon
  GI50: 38.2 µM
  TGI: > 100 µM
HCT-15 colon
  GI50: 3.97 µM
  TGI: > 100 µM
HOP-92 NSCLC
  GI50: 72.7 µM
  TGI: > 100 µM
SF-295 CNS
  GI50: 22.2 µM
  TGI: > 100 µM
ACHN renal
  GI50: 20.8 µM
  TGI: > 100 µM
OVCAR-8 ovarian
  GI50: 44.1 µM
  TGI: > 100 µM
SK-MEL-28 melanoma
  GI50: > 100 µM
  TGI: > 100 µM
COLO 205 colon
  GI50: 99.8 µM
  TGI: > 100 µM
SR leukemia
  GI50: 18.5 µM
  TGI: 40.8 µM
MALME-3M melanoma
  GI50: > 100 µM
  TGI: > 100 µM
TK-10 renal
  GI50: 35.2 µM
  TGI: > 100 µM
SN12C renal
  GI50: 30.6 µM
  TGI: > 100 µM

## CCC(CC)n1cnc2c(-c3cnc(N)cn3)nc(N3CC4CCC(C3)O4)nc21
MDA-MB-468 breast
  GI50: 0.375 µM
  TGI: 1.2 µM
LOX IMVI melanoma
  GI50: 1.08 µM
  TGI: 8.87 µM
NCI-H460 NSCLC
  GI50: 0.187 µM
  TGI: > 100 µM
HS 578T breast
  GI50: 0.205 µM
  TGI: 0.927 µM
OVCAR-5 ovarian
  GI50: 0.685 µM
  TGI: > 100 µM
NCI-H322M lung
  GI50: 0.394 µM
  TGI: > 100 µM
RXF 393 renal
  GI50: 1.29 µM
  TGI: > 100 µM
NCI-H226 lung
  GI50: 0.54 µM
  TGI: 6.52 µM
IGROV1 ovarian
  GI50: 0.229 µM
  TGI: 0.894 µM
MDA-MB-231 breast
  GI50: 0.68 µM
  TGI: > 100 µM
SF-268 CNS
  GI50: 2.57 µM
  TGI: > 100 µM
786-0 renal
  GI50: 2.75 µM
  TGI: > 100 µM
RPMI-8226 leukemia
  GI50: 0.029 µM
  TGI: 0.151 µM
HT29 colon
  GI50: 2.53 µM
  TGI: > 100 µM
SK-OV-3 ovarian
  GI50: 0.4 µM
  TGI: 5.19 µM
NCI-H522 lung
  GI50: 0.314 µM
  TGI: > 100 µM
SNB-19 CNS
  GI50: 8.09 µM
  TGI: > 100 µM
OVCAR-4 ovarian
  GI50: 0.635 µM
  TGI: 3.79 µM
PC-3 prostate
  GI50: 0.348 µM
  TGI: > 100 µM
HL-60(TB) leukemia
  GI50: 44.5 µM
  TGI: > 100 µM
CAKI-1 renal
  GI50: 0.775 µM
  TGI: 45.8 µM
A549 NSCLC
  GI50: 0.418 µM
  TGI: > 100 µM
EKVX NSCLC
  GI50: 0.977 µM
  TGI: 9.92 µM
SNB-75 CNS
  GI50: 0.312 µM
  TGI: 7.84 µM
UACC-62 melanoma
  GI50: 0.416 µM
  TGI: 4.61 µM
SK-MEL-5 melanoma
  GI50: 0.288 µM
  TGI: 1.61 µM
DU-145 prostate
  GI50: 2.03 µM
  TGI: > 100 µM
OVCAR-3 ovarian
  GI50: 0.901 µM
  TGI: > 100 µM
MOLT-4 leukemia
  GI50: 0.375 µM
  TGI: 10.5 µM
K-562 leukemia
  GI50: 1.68 µM
  TGI: > 100 µM
T-47D breast
  GI50: 0.0669 µM
  TGI: 0.431 µM
A498 renal
  GI50: 0.173 µM
  TGI: 1.32 µM
KM12 colon
  GI50: 0.508 µM
  TGI: > 100 µM
NCI/ADR-RES ovarian
  GI50: 2.77 µM
  TGI: > 100 µM
BT-549 breast
  GI50: 1.06 µM
  TGI: 5.22 µM
MDA-MB-435 melanoma
  GI50: 1.58 µM
  TGI: 39.9 µM
MCF7 breast
  GI50: 0.184 µM
  TGI: 80.3 µM
CCRF-CEM leukemia
  GI50: 0.358 µM
  TGI: 14 µM
HCC-2998 colon
  GI50: 10.5 µM
  TGI: > 100 µM
SW-620 colon
  GI50: 3.46 µM
  TGI: > 100 µM
SF-539 CNS
  GI50: 1.63 µM
  TGI: > 100 µM
HOP-62 NSCLC
  GI50: 1.01 µM
  TGI: 39.1 µM
M14 melanoma
  GI50: 0.493 µM
  TGI: > 100 µM
UACC-257 melanoma
  GI50: 2.37 µM
  TGI: > 100 µM
NCI-H23 lung
  GI50: 1.27 µM
  TGI: > 100 µM
HCT-15 colon
  GI50: 0.566 µM
  TGI: > 100 µM
HOP-92 NSCLC
  GI50: 0.298 µM
  TGI: 4.96 µM
SF-295 CNS
  GI50: 0.267 µM
  TGI: 2.28 µM
ACHN renal
  GI50: 0.523 µM
  TGI: > 100 µM
OVCAR-8 ovarian
  GI50: 1.75 µM
  TGI: > 100 µM
SK-MEL-28 melanoma
  GI50: 0.309 µM
  TGI: 5.99 µM
COLO 205 colon
  GI50: 0.425 µM
  TGI: > 100 µM
UO-31 renal
  GI50: 3.03 µM
  TGI: > 100 µM
SR leukemia
  GI50: 0.189 µM
  TGI: 1.17 µM
MALME-3M melanoma
  GI50: 0.0694 µM
  TGI: 0.531 µM
TK-10 renal
  GI50: 1.39 µM
  TGI: > 100 µM
SN12C renal
  GI50: 0.433 µM
  TGI: > 100 µM
